# Organism: Rattus norvegicus
# Assay: DrugMatrix - Regimen: Daily Repeat
# Format: toxicity, organism-based, Sprague-Dawley
# Parameters: regimen Daily Repeat, gender Male, age 6-8 weeks
# Details: in vivo, po, route oral GAVAGE, vehicle 100 % WATER; for ABSOLUTE BASOPHIL / ABSOLUTE EOSINOPHIL / ABSOLUTE LYMPHOCYTE / ABSOLUTE MONOCYTE / ABSOLUTE SEGMENTED NEUTROPHIL / BASOPHIL / EOSINOPHIL / ERYTHROCYTE COUNT / HEMATOCRIT / HEMOGLOBIN / LEUKOCYTE COUNT / LYMPHOCYTE / MEAN CORPUSCULAR HEMOGLOBIN / MEAN CORPUSCULAR HEMOGLOBIN CONCENTRATION / MEAN CORPUSCULAR VOLUME / MONOCYTE / NEUTROPHIL / NUCLEATED RED BLOOD CELLS / PLATELET COUNT: tissue Blood; for ALANINE AMINOTRANSFERASE / ALBUMIN / ALKALINE PHOSPHATASE / ASPARTATE AMINOTRANSFERASE / BLOOD UREA NITROGEN / CARBON DIOXIDE / CHLORIDE / CHOLESTEROL / CREATINE PHOSPHOKINASE / CREATININE / GLUCOSE / LACTATE DEHYDROGENASE / LIPASE / PHOSPHORUS / POTASSIUM / SODIUM / TOTAL BILIRUBIN / TOTAL PROTEIN / URIC ACID: tissue Plasma
# [1] = 20 mg/kg, 72 h, dose level Low, time 3 day
# [2] = 20 mg/kg, 120 h, dose level Low, time 5 day
# [3] = 266 mg/kg, 72 h, dose level High, time 3 day
# [4] = 266 mg/kg, 120 h, dose level High, time 5 day
structure (smiles),measurement,setting,value
O=C(NCCN1CCOCC1)c1ccc(Cl)cc1 [MOCLOBEMIDE],ABSOLUTE BASOPHIL,[1],0 CELLS/uL
same,ABSOLUTE EOSINOPHIL,[1],175 CELLS/uL
same,ABSOLUTE LYMPHOCYTE,[1],12157.33 CELLS/uL
same,ABSOLUTE MONOCYTE,[1],176.67 CELLS/uL
same,ABSOLUTE SEGMENTED NEUTROPHIL,[1],691 CELLS/uL
same,BASOPHIL,[1],0%
same,EOSINOPHIL,[1],1%
same,ERYTHROCYTE COUNT,[1],5.68 x10E6/uL
same,HEMATOCRIT,[1],34.7%
same,HEMOGLOBIN,[1],13.23 G/DL
same,LEUKOCYTE COUNT,[1],13.2 x10E3/uL
same,LYMPHOCYTE,[1],92.33%
same,MEAN CORPUSCULAR HEMOGLOBIN,[1],23.33 pg
same,MEAN CORPUSCULAR HEMOGLOBIN CONCENTRATION,[1],38.13 G/DL
same,MEAN CORPUSCULAR VOLUME,[1],61.13 fL
same,MONOCYTE,[1],1.33%
same,NEUTROPHIL,[1],5.33%
same,NUCLEATED RED BLOOD CELLS,[1],0 /100WBC
same,PLATELET COUNT,[1],1220 x10E3/uL
same,ALANINE AMINOTRANSFERASE,[1],54.33 u/L
same,ALBUMIN,[1],4.07 G/DL
same,ALKALINE PHOSPHATASE,[1],345 u/L
same,ASPARTATE AMINOTRANSFERASE,[1],110.33 u/L
same,BLOOD UREA NITROGEN,[1],17.33 mg/dL
same,CARBON DIOXIDE,[1],23.67 mmol/L
same,CHLORIDE,[1],102.67 MEQ/L
same,CHOLESTEROL,[1],74 mg/dL
same,CREATINE PHOSPHOKINASE,[1],379 u/L
same,CREATININE,[1],0.2 mg/dL
same,GLUCOSE,[1],174.67 mg/dL
same,LACTATE DEHYDROGENASE,[1],728 u/L
same,LIPASE,[1],9.67 u/L
same,PHOSPHORUS,[1],14.07 mg/dL
same,POTASSIUM,[1],6.99 MEQ/L
same,SODIUM,[1],145.9 MEQ/L
same,TOTAL BILIRUBIN,[1],0.2 mg/dL
same,TOTAL PROTEIN,[1],5.7 G/DL
same,URIC ACID,[1],2.03 mg/dL
same,ABSOLUTE BASOPHIL,[2],0 CELLS/uL
same,ABSOLUTE EOSINOPHIL,[2],0 CELLS/uL
same,ABSOLUTE LYMPHOCYTE,[2],15547 CELLS/uL
same,ABSOLUTE MONOCYTE,[2],117.33 CELLS/uL
same,ABSOLUTE SEGMENTED NEUTROPHIL,[2],1669 CELLS/uL
same,BASOPHIL,[2],0%
same,EOSINOPHIL,[2],0%
same,ERYTHROCYTE COUNT,[2],5.91 x10E6/uL
same,HEMATOCRIT,[2],36.73%
same,HEMOGLOBIN,[2],14.33 G/DL
same,LEUKOCYTE COUNT,[2],17.33 x10E3/uL
same,LYMPHOCYTE,[2],89.67%
same,MEAN CORPUSCULAR HEMOGLOBIN,[2],24.33 pg
same,MEAN CORPUSCULAR HEMOGLOBIN CONCENTRATION,[2],39 G/DL
same,MEAN CORPUSCULAR VOLUME,[2],62.4 fL
same,MONOCYTE,[2],0.67%
same,NEUTROPHIL,[2],9.67%
same,NUCLEATED RED BLOOD CELLS,[2],0 /100WBC
same,PLATELET COUNT,[2],1391.67 x10E3/uL
same,ALANINE AMINOTRANSFERASE,[2],57 u/L
same,ALBUMIN,[2],4.1 G/DL
same,ALKALINE PHOSPHATASE,[2],322.67 u/L
same,ASPARTATE AMINOTRANSFERASE,[2],96.67 u/L
same,BLOOD UREA NITROGEN,[2],15 mg/dL
same,CARBON DIOXIDE,[2],27.33 mmol/L
same,CHLORIDE,[2],101.33 MEQ/L
same,CHOLESTEROL,[2],70.67 mg/dL
same,CREATINE PHOSPHOKINASE,[2],318 u/L
same,CREATININE,[2],0.17 mg/dL
same,GLUCOSE,[2],156.67 mg/dL
same,LACTATE DEHYDROGENASE,[2],488 u/L
same,LIPASE,[2],9.67 u/L
same,PHOSPHORUS,[2],13.7 mg/dL
same,POTASSIUM,[2],6.88 MEQ/L
same,SODIUM,[2],145.17 MEQ/L
same,TOTAL BILIRUBIN,[2],0.17 mg/dL
same,TOTAL PROTEIN,[2],5.83 G/DL
same,URIC ACID,[2],1.63 mg/dL
same,ABSOLUTE BASOPHIL,[3],0 CELLS/uL
same,ABSOLUTE EOSINOPHIL,[3],201.33 CELLS/uL
same,ABSOLUTE LYMPHOCYTE,[3],17920 CELLS/uL
same,ABSOLUTE MONOCYTE,[3],282 CELLS/uL
same,ABSOLUTE SEGMENTED NEUTROPHIL,[3],1130 CELLS/uL
same,BASOPHIL,[3],0%
same,EOSINOPHIL,[3],0.67%
same,ERYTHROCYTE COUNT,[3],5.8 x10E6/uL
same,HEMATOCRIT,[3],36.67%
same,HEMOGLOBIN,[3],14.43 G/DL
same,LEUKOCYTE COUNT,[3],19.53 x10E3/uL
same,LYMPHOCYTE,[3],92%
same,MEAN CORPUSCULAR HEMOGLOBIN,[3],24.93 pg
same,MEAN CORPUSCULAR HEMOGLOBIN CONCENTRATION,[3],39.37 G/DL
same,MEAN CORPUSCULAR VOLUME,[3],63.27 fL
same,MONOCYTE,[3],1.33%
same,NEUTROPHIL,[3],6%
same,NUCLEATED RED BLOOD CELLS,[3],0 /100WBC
same,PLATELET COUNT,[3],1228 x10E3/uL
same,ALANINE AMINOTRANSFERASE,[3],45 u/L
same,ALBUMIN,[3],4.27 G/DL
same,ALKALINE PHOSPHATASE,[3],348 u/L
same,ASPARTATE AMINOTRANSFERASE,[3],85.67 u/L
same,BLOOD UREA NITROGEN,[3],15.67 mg/dL
same,CARBON DIOXIDE,[3],27 mmol/L
same,CHLORIDE,[3],102 MEQ/L
same,CHOLESTEROL,[3],91.67 mg/dL
same,CREATINE PHOSPHOKINASE,[3],407 u/L
same,CREATININE,[3],0.2 mg/dL
same,GLUCOSE,[3],135.33 mg/dL
same,LACTATE DEHYDROGENASE,[3],202.33 u/L
same,LIPASE,[3],9.67 u/L
same,PHOSPHORUS,[3],12.33 mg/dL
same,POTASSIUM,[3],5.98 MEQ/L
same,SODIUM,[3],144.7 MEQ/L
same,TOTAL BILIRUBIN,[3],0.13 mg/dL
same,TOTAL PROTEIN,[3],5.67 G/DL
same,URIC ACID,[3],1.47 mg/dL
same,ABSOLUTE BASOPHIL,[4],0 CELLS/uL
same,ABSOLUTE EOSINOPHIL,[4],57.67 CELLS/uL
same,ABSOLUTE LYMPHOCYTE,[4],16939.67 CELLS/uL
same,ABSOLUTE MONOCYTE,[4],123 CELLS/uL
same,ABSOLUTE SEGMENTED NEUTROPHIL,[4],946.33 CELLS/uL
same,BASOPHIL,[4],0%
same,EOSINOPHIL,[4],0.33%
same,ERYTHROCYTE COUNT,[4],6.33 x10E6/uL
same,HEMATOCRIT,[4],38.47%
same,HEMOGLOBIN,[4],15.33 G/DL
same,LEUKOCYTE COUNT,[4],18.07 x10E3/uL
same,LYMPHOCYTE,[4],93.67%
same,MEAN CORPUSCULAR HEMOGLOBIN,[4],24.23 pg
same,MEAN CORPUSCULAR HEMOGLOBIN CONCENTRATION,[4],39.87 G/DL
same,MEAN CORPUSCULAR VOLUME,[4],60.77 fL
same,MONOCYTE,[4],0.67%
same,NEUTROPHIL,[4],5.33%
same,NUCLEATED RED BLOOD CELLS,[4],0 /100WBC
same,PLATELET COUNT,[4],1501 x10E3/uL
same,ALANINE AMINOTRANSFERASE,[4],44 u/L
same,ALBUMIN,[4],4.3 G/DL
same,ALKALINE PHOSPHATASE,[4],312.33 u/L
same,ASPARTATE AMINOTRANSFERASE,[4],75.67 u/L
same,BLOOD UREA NITROGEN,[4],16 mg/dL
same,CARBON DIOXIDE,[4],26 mmol/L
same,CHLORIDE,[4],100.67 MEQ/L
same,CHOLESTEROL,[4],75.67 mg/dL
same,CREATINE PHOSPHOKINASE,[4],226.33 u/L
same,CREATININE,[4],0.15 mg/dL
same,GLUCOSE,[4],155.33 mg/dL
same,LACTATE DEHYDROGENASE,[4],246.67 u/L
same,LIPASE,[4],10.33 u/L
same,PHOSPHORUS,[4],12.43 mg/dL
same,POTASSIUM,[4],6.84 MEQ/L
same,SODIUM,[4],143.43 MEQ/L
same,TOTAL BILIRUBIN,[4],0.17 mg/dL
same,TOTAL PROTEIN,[4],6.2 G/DL
same,URIC ACID,[4],2.3 mg/dL

# Source: ChEMBL document CHEMBL3885881, “DrugMatrix”
